One block for each molecule: values may come before it. Square brackets hold non-standard residues; d marks the D form. Ends that are not written are not given here. Hyp = O=C(O)[C@@H]1C[C@@H](O)CN1; Aad = N[C@@H](CCCC(=O)O)C(=O)O; Cit = NC(=O)NCCC[C@H](N)C(=O)O; Nva = CCC[C@H](N)C(=O)O; Ac3c = NC1(C(=O)O)CC1
Key:
MCF-7 cells = assay: Clone formation experiment; format: cell-based, human; conditions: MCF-7, 200 cells per well, 1 week, crystal violet; performed three times
Method: We seeded 200 cells per well in 6-well plates with culture medium. After 12 h, the cells were incubated with different agents for 1 week at 37 °C with 5% CO2. Then, we washed the wells with PBS, fixed the cells with methanol for 10 min and stained them with crystal violet at room temperature. Finally, we washed them with sterile water several times in order to obtain a clean background, and then, the colonies formed were photographed and statistically analyzed.

[1] = once per week; no reference given; cited from earlier work
From the text: We investigated the antitumor efficacy of those two PDCs on xenografted mice in vivo.

[2] = target: T1, FGFR2 extracellular motif protein (UniProt P21802 22-377); assay: ITC; ITC200, 25 °C, both dissolved in sterile water; 0.1 mM peptide in the sample cell, 0.001 mM FGFR protein in the syringe; 19 injections of 2 µL, 5 min apart; conditions: both partners purified
T1 construct: fibroblast growth factor receptor 2 (FGFR2), recombinant, 'extracellular motif protein'; No catalogue number is printed; limits, isoform (IIIb or IIIc) and tag of the bought protein are unknown; also called FGFR2 protein; recombinant proteins of the FGFR2; source: bought: Sino Biological
T1 sequence (P21802 22-377): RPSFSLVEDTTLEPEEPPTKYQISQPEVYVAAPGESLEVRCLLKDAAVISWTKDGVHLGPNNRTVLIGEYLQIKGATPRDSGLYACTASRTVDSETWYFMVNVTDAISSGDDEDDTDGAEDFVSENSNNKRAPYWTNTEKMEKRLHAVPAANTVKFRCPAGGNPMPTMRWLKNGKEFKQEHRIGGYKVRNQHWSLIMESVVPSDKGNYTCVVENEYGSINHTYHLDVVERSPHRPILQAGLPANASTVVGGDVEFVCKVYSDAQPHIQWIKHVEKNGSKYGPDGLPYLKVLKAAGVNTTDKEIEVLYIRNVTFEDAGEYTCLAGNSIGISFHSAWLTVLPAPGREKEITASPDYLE

Molecule: COc1cc2cc(c1Cl)N(C)C(=O)C[C@H](OC(=O)[C@H](C)N(C)C(=O)CCS)[C@]1(C)O[C@H]1[C@H](C)[C@@H]1C[C@@](O)(NC(=O)O1)[C@H](OC)/C=C/C=C(\C)C2 [DM1, reference compound]
concentration that completely suppresses clone formation (MCF-7 cells): 0.001 µg/mL | tolerated concentrations in mice [1]: 1.0 to 1.5 mg/kg

Ka [2]: 1.04e+09 M⁻¹ | Kd [2]: 0.96 nM
B1: LLC2B (peptide)
chain: [Hyp][dL][Cit][dD][dN][dK][Ac3c][Nva][Aad]

— PMC8389697, “Development and Characterization of a Novel Peptide—Drug Conjugate with DM1 for Treatment of FGFR2-Positive Tumors” (Biomedicines, 2021)
